Test results as given in the NIST ThermoML archive (doi:10.1021/je5004912).

Assay: excess molar enthalpy (molar enthalpy of mixing); xn = mol fraction of the nth substance listed
Settings: 101 kPa, Liquid, Flow calorimetry

CCCCCCC [heptane] + CCCO
excess molar enthalpy [kcal/mol]
Settings | 298.15 K | 313.15 K
x1 = 0.0503 | 0.0229 | 0.0292
x1 = 0.1001 | – | 0.0564
x1 = 0.1002 | 0.0435 | –
x1 = 0.15 | – | 0.081
x1 = 0.1501 | 0.0619 | –
x1 = 0.2 | – | 0.103
x1 = 0.2001 | 0.0786 | –
x1 = 0.2498 | – | 0.124
x1 = 0.2499 | 0.0935 | –
x1 = 0.3004 | 0.107 | 0.142
x1 = 0.3503 | – | 0.159
x1 = 0.3505 | 0.119 | –
x1 = 0.4003 | – | 0.174
x1 = 0.4005 | 0.13 | –
x1 = 0.4498 | – | 0.186
x1 = 0.4501 | 0.139 | –
x1 = 0.4996 | – | 0.196
x1 = 0.4997 | 0.147 | –
x1 = 0.5503 | – | 0.203
x1 = 0.5505 | 0.153 | –
x1 = 0.5995 | – | 0.208
x1 = 0.5996 | 0.157 | –
x1 = 0.6505 | – | 0.211
x1 = 0.6506 | 0.158 | –
x1 = 0.7004 | – | 0.209
x1 = 0.7005 | 0.157 | –
x1 = 0.7503 | – | 0.204
x1 = 0.7504 | 0.153 | –
x1 = 0.8 | – | 0.195
x1 = 0.8001 | 0.145 | –
x1 = 0.8492 | – | 0.18
x1 = 0.8493 | 0.134 | –
x1 = 0.8993 | 0.118 | 0.16
x1 = 0.9503 | 0.0913 | 0.123

CC(C)CC(C)(C)C [2,2,4-trimethylpentane] + CCCO
excess molar enthalpy [kcal/mol]
Settings | 298.15 K | 313.15 K
x1 = 0.05 | 0.0208 | 0.0282
x1 = 0.1 | – | 0.0543
x1 = 0.1001 | 0.0399 | –
x1 = 0.1504 | – | 0.0784
x1 = 0.1505 | 0.0576 | –
x1 = 0.2002 | – | 0.1
x1 = 0.2003 | 0.0736 | –
x1 = 0.25 | – | 0.12
x1 = 0.2501 | 0.0882 | –
x1 = 0.2997 | – | 0.139
x1 = 0.2999 | 0.102 | –
x1 = 0.3498 | – | 0.156
x1 = 0.3499 | 0.114 | –
x1 = 0.4004 | – | 0.172
x1 = 0.4006 | 0.126 | –
x1 = 0.4502 | – | 0.185
x1 = 0.4503 | 0.136 | –
x1 = 0.4995 | – | 0.195
x1 = 0.4997 | 0.144 | –
x1 = 0.5503 | – | 0.203
x1 = 0.5504 | 0.151 | –
x1 = 0.5997 | – | 0.209
x1 = 0.5998 | 0.155 | –
x1 = 0.6498 | – | 0.211
x1 = 0.65 | 0.157 | –
x1 = 0.7007 | – | 0.211
x1 = 0.7008 | 0.157 | –
x1 = 0.7501 | – | 0.206
x1 = 0.7502 | 0.153 | –
x1 = 0.7993 | – | 0.197
x1 = 0.7994 | 0.146 | –
x1 = 0.8499 | 0.135 | 0.184
x1 = 0.8998 | 0.12 | 0.163
x1 = 0.9506 | 0.0937 | 0.124

C=CCCCC [hex-1-ene] + CCCO
excess molar enthalpy [kcal/mol]
Settings | 298.15 K | 313.15 K
x1 = 0.0501 | 0.0146 | 0.022
x1 = 0.1002 | – | 0.0445
x1 = 0.1003 | 0.0301 | –
x1 = 0.1501 | 0.0459 | 0.0667
x1 = 0.2001 | – | 0.0884
x1 = 0.2002 | 0.0612 | –
x1 = 0.2499 | – | 0.109
x1 = 0.2501 | 0.0762 | –
x1 = 0.3003 | – | 0.13
x1 = 0.3004 | 0.0913 | –
x1 = 0.3499 | – | 0.148
x1 = 0.3501 | 0.106 | –
x1 = 0.4006 | – | 0.166
x1 = 0.4007 | 0.119 | –
x1 = 0.4499 | – | 0.181
x1 = 0.4501 | 0.132 | –
x1 = 0.4998 | – | 0.195
x1 = 0.5001 | 0.142 | –
x1 = 0.5502 | – | 0.206
x1 = 0.5504 | 0.152 | –
x1 = 0.5996 | – | 0.214
x1 = 0.5998 | 0.159 | –
x1 = 0.6503 | – | 0.218
x1 = 0.6505 | 0.163 | –
x1 = 0.6996 | – | 0.22
x1 = 0.6998 | 0.165 | –
x1 = 0.75 | 0.163 | 0.217
x1 = 0.7998 | – | 0.209
x1 = 0.7999 | 0.158 | –
x1 = 0.8505 | 0.147 | 0.195
x1 = 0.9004 | 0.131 | 0.172
x1 = 0.9508 | 0.102 | 0.131
